Data from paper PMC9250534, “Synthesis and direct assay of large macrocycle diversities by combinatorial late-stage modification at picomole scale” (Nature Communications, 2022).
Numbered stars: 1 amine (or outer) side, 2 acyl side, 3 side chain; on linkers, the order of the positions; unused ones are H or OH. Bridge positions count the residues as written; N and C are the ends. Square brackets hold non-standard residues; d marks the D form. Peptide text beside a SMILES is read from it. * marks the point of attachment. 2Thenoyl(5-Cl) = O=C(c1ccc(Cl)s1)*; Benzoyl(4-Cl) = O=C(c1ccc(Cl)cc1)*; Cysteamide = C(CS[*:3])N[*:1]; X1 = O=C(/C=C/c1ccccc1)*; Api = NC1(C(=O)O)CCNCC1; Mpa = O=C(O)CCS

Molecular target: MDM2 (Homo sapiens, UniProt Q00987)
Sequence (Q00987 whole entry): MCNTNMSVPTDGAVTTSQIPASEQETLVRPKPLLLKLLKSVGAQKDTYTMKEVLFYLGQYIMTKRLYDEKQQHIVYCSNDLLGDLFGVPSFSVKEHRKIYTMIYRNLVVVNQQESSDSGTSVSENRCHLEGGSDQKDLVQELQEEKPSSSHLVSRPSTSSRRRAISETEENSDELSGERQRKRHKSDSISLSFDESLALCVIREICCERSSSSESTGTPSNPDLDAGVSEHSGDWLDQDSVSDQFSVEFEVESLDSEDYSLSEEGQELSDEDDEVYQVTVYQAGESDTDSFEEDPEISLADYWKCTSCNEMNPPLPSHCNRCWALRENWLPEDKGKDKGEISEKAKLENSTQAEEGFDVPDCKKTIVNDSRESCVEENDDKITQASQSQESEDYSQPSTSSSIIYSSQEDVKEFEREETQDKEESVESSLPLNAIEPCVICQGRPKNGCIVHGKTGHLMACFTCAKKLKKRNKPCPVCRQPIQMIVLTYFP
Experiment: MDM2 binding screen: displacement of fluorescent p53 peptide probe FP53 (fluorescence polarization)
Conditions: for fraction fluorescent probe displaced, Screen: initial screen; for fraction fluorescent probe displaced, Screen / fraction fluorescent probe displaced, Replicate: crude macrocycle reactions
Method in brief: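 Single-point screen: one fluorescence anisotropy reading at 25 °C (485 nm excitation, 535 nm emission) per macrocycle. Crude macrocycle reactions, final 10 µM, were scored for displacing the fluorescent p53 peptide from human MDM2.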

| fraction fluorescent probe displaced, Screen (Acid 91) | fraction fluorescent probe displaced, Replicate (Acid 91, replicate) | fraction fluorescent probe displaced, Screen (Acid 14) | fraction fluorescent probe displaced, Replicate (Acid 14, replicate) | SMILES | also measured |
| --- | --- | --- | --- | --- | --- |
| – | – | – | – | O=C1CCSSCCNC(=O)[C@H](Cc2ccccc2)NC(=O)[C@@H]2CCCN2C(=O)C2(CCN(C(=O)c3ccc(Cl)cc3)CC2)N1 [X D6 B1 F Acid 25] ([Mpa][Api](Benzoyl(4-Cl))PF-Cysteamide; disulfide 1-C) | fraction fluorescent probe displaced, Screen (Acid 25): 0.0569; fraction fluorescent probe displaced, Replicate (Acid 25, replicate): 0.07 |
| -0.08 | -0.11 | – | – | O=C1CCSSCCNC(=O)[C@H](Cc2ccccc2)NC(=O)[C@@H]2CCCN2C(=O)C2(CCN(C(=O)/C=C/c3ccccc3)CC2)N1 [X D6 B1 F Acid 91] ([Mpa][Api](X1)PF-Cysteamide; disulfide 1-C) | – |
| – | – | 0.08 | 0.07 | O=C1CCSSCCNC(=O)[C@H](Cc2c[nH]c3ccccc23)NC(=O)[C@@H]2CCCN2C(=O)C2(CCN(C(=O)c3ccc(Cl)s3)CC2)N1 [X D6 B1 W Acid 14] ([Mpa][Api](2Thenoyl(5-Cl))PW-Cysteamide; disulfide 1-C) | – |
| -0.05 | 0.04 | – | – | O=C1CCSSCCNC(=O)[C@H](Cc2c[nH]c3ccccc23)NC(=O)[C@@H]2CCCN2C(=O)C2(CCN(C(=O)/C=C/c3ccccc3)CC2)N1 [X D6 B1 W Acid 91] ([Mpa][Api](X1)PW-Cysteamide; disulfide 1-C) | – |
| – | – | 0.08 | 0.0465 | O=C1CCNC(=O)C2(CCN(C(=O)c3ccc(Cl)s3)CC2)NC(=O)CCSSCCNC(=O)[C@H](Cc2ccccc2)N1 [X D6 B2 F Acid 14] | – |
| – | – | – | – | O=C1CCNC(=O)C2(CCN(C(=O)c3ccc(Cl)cc3)CC2)NC(=O)CCSSCCNC(=O)[C@H](Cc2ccccc2)N1 [X D6 B2 F Acid 25] | fraction fluorescent probe displaced, Screen (Acid 25): 0.0244; fraction fluorescent probe displaced, Replicate (Acid 25, replicate): 0.0211 |
| -0.0241 | -0.00827 | – | – | O=C1CCNC(=O)C2(CCN(C(=O)/C=C/c3ccccc3)CC2)NC(=O)CCSSCCNC(=O)[C@H](Cc2ccccc2)N1 [X D6 B2 F Acid 91] | – |
| – | – | 0.17 | 0.20 | O=C1CCNC(=O)C2(CCN(C(=O)c3ccc(Cl)s3)CC2)NC(=O)CCSSCCNC(=O)[C@H](Cc2c[nH]c3ccccc23)N1 [X D6 B2 W Acid 14] | – |
| 0.19 | 0.09 | – | – | O=C1CCNC(=O)C2(CCN(C(=O)/C=C/c3ccccc3)CC2)NC(=O)CCSSCCNC(=O)[C@H](Cc2c[nH]c3ccccc23)N1 [X D6 B2 W Acid 91] | – |
| – | – | – | – | O=C1CCSSCCNC(=O)[C@H](Cc2ccccc2)NC(=O)[C@H]2CCCN(C2)C(=O)C2(CCN(C(=O)c3ccc(Cl)s3)CC2)N1 [X D6 B4 F + Acid 14] | fraction fluorescent probe displaced (crude reaction of macrocycle scaffold with Acid 14, (initial screen)): -0.00483; fraction fluorescent probe displaced (crude reaction of macrocycle scaffold with Acid 14, replicate): 0.10 |
| – | – | – | – | O=C1CCSSCCNC(=O)[C@H](Cc2ccccc2)NC(=O)[C@H]2CCCN(C2)C(=O)C2(CCN(C(=O)c3ccc(Cl)cc3)CC2)N1 [X D6 B4 F + Acid 25] | fraction fluorescent probe displaced (crude reaction of macrocycle scaffold with Acid 25, (initial screen)): 0.09; fraction fluorescent probe displaced (crude reaction of macrocycle scaffold with Acid 25, replicate): 0.15 |
| – | – | 0.17 | 0.25 | O=C1CCSSCCNC(=O)[C@H](Cc2c[nH]c3ccccc23)NC(=O)[C@H]2CCCN(C2)C(=O)C2(CCN(C(=O)c3ccc(Cl)s3)CC2)N1 [X D6 B4 W Acid 14] | – |
| 0.11 | 0.0168 | – | – | O=C1CCSSCCNC(=O)C(Cc2c[nH]c3ccccc23)NC(=O)C2CCCN(C2)C(=O)C2(CCN(C(=O)C=Cc3ccccc3)CC2)N1 (stereo not shown) [X D6 B4 W Acid 91] | – |
| -0.05 | -0.0333 | – | – | O=C1CCSSCCNC(=O)[C@H](Cc2ccccc2)NC(=O)c2cccc(c2)CNC(=O)C2(CCN(C(=O)/C=C/c3ccccc3)CC2)N1 [X D6 B5 F Acid 91] | – |
| – | – | 0.23 | 0.25 | O=C1CCSSCCNC(=O)C(Cc2c[nH]c3ccccc23)NC(=O)c2cccc(c2)CNC(=O)C2(CCN(C(=O)c3ccc(Cl)s3)CC2)N1 (stereo not shown) [X D6 B5 W Acid 14] | – |
| – | – | – | – | O=C1CCSSCCNC(=O)[C@H](Cc2c[nH]c3ccccc23)NC(=O)c2cccc(c2)CNC(=O)C2(CCN(C(=O)c3ccc(Cl)cc3)CC2)N1 [X D6 B5 W Acid 25] | fraction fluorescent probe displaced, Screen (Acid 25): 0.25; fraction fluorescent probe displaced, Replicate (Acid 25, replicate): 0.22 |
| – | – | 0.053 | 0.07 | O=C1CCSSCCNC(=O)[C@@H]2CCCN2C(=O)[C@H](Cc2ccccc2)NC(=O)C2(CCN(C(=O)c3ccc(Cl)s3)CC2)N1 [X D6 F B1 Acid 14] ([Mpa][Api](2Thenoyl(5-Cl))FP-Cysteamide; disulfide 1-C) | – |
| – | – | – | – | O=C1CCSSCCNC(=O)[C@@H]2CCCN2C(=O)[C@H](Cc2ccccc2)NC(=O)C2(CCN(C(=O)c3ccc(Cl)cc3)CC2)N1 [X D6 F B1 Acid 25] ([Mpa][Api](Benzoyl(4-Cl))FP-Cysteamide; disulfide 1-C) | fraction fluorescent probe displaced, Screen (Acid 25): 0.15; fraction fluorescent probe displaced, Replicate (Acid 25, replicate): 0.22 |
| -0.05 | -0.08 | – | – | O=C1CCSSCCNC(=O)[C@@H]2CCCN2C(=O)[C@H](Cc2ccccc2)NC(=O)C2(CCN(C(=O)/C=C/c3ccccc3)CC2)N1 [X D6 F B1 Acid 91] ([Mpa][Api](X1)FP-Cysteamide; disulfide 1-C) | – |
| – | – | 0.0241 | 0.07 | O=C1CCNC(=O)[C@H](Cc2ccccc2)NC(=O)C2(CCN(C(=O)c3ccc(Cl)s3)CC2)NC(=O)CCSSCCN1 [X D6 F B2 Acid 14] | – |
| 0.14 | 0.04 | – | – | O=C1CCNC(=O)[C@H](Cc2ccccc2)NC(=O)C2(CCN(C(=O)/C=C/c3ccccc3)CC2)NC(=O)CCSSCCN1 [X D6 F B2 Acid 91] | – |
| – | – | – | – | O=C1CCSSCCNC(=O)[C@H]2CCCN(C2)C(=O)[C@H](Cc2ccccc2)NC(=O)C2(CCN(C(=O)/C=C/c3ccccc3)CC2)N1 [X D6 F B4 + Acid 91] | fraction fluorescent probe displaced (crude reaction of macrocycle scaffold with Acid 91, (initial screen)): 0.03; fraction fluorescent probe displaced (crude reaction of macrocycle scaffold with Acid 91, replicate): -0.00827 |
| – | – | -0.0337 | 0.12 | O=C1CCSSCCNC(=O)c2cccc(c2)CNC(=O)[C@H](Cc2ccccc2)NC(=O)C2(CCN(C(=O)c3ccc(Cl)s3)CC2)N1 [X D6 F B5 Acid 14] | – |
| -0.05 | -0.00827 | – | – | O=C1CCSSCCNC(=O)c2cccc(c2)CNC(=O)C(Cc2ccccc2)NC(=O)C2(CCN(C(=O)C=Cc3ccccc3)CC2)N1 (stereo not shown) [X D6 F B5 Acid 91] | – |
| – | – | 0.11 | 0.07 | O=C1CCSSCCNC(=O)[C@@H]2CCCN2C(=O)[C@H](Cc2c[nH]c3ccccc23)NC(=O)C2(CCN(C(=O)c3ccc(Cl)s3)CC2)N1 [X D6 W B1 Acid 14] ([Mpa][Api](2Thenoyl(5-Cl))WP-Cysteamide; disulfide 1-C) | – |
| – | – | – | – | O=C1CCSSCCNC(=O)[C@@H]2CCCN2C(=O)[C@H](Cc2c[nH]c3ccccc23)NC(=O)C2(CCN(C(=O)c3ccc(Cl)cc3)CC2)N1 [X D6 W B1 Acid 25] ([Mpa][Api](Benzoyl(4-Cl))WP-Cysteamide; disulfide 1-C) | fraction fluorescent probe displaced, Screen (Acid 25): 0.25; fraction fluorescent probe displaced, Replicate (Acid 25, replicate): 0.20 |
